What was measured:
[1] = tested on: P. berghei NY malaria parasite; test: Antimalarial efficacies in vivo in mice
From the text: Neither overt toxicity nor behavioral modification was observed due to drug administration in any of these mouse experiments.

[2] = tested on: HL-60(TB); test: NCI 60 cell line panel screen (SRB); type: cell-based, human; conditions: for Log10LC50 / Log10TGI50: HL-60(TB) (Leukemia); for Log10LC50: LC50: PG=−50; for Log10TGI50: TGI: PG=0; for Log10GI50: Leukemia, HL-60(TB)
[3] = tested on: EKVX; test: NCI 60 cell line panel screen (SRB); type: cell-based, human
[4] = tested on: HOP-62; test: NCI 60 cell line panel screen (SRB); type: cell-based, human; conditions: for Log10LC50 / Log10TGI50: HOP-62 (Non-Small Cell Lung Cancer); for Log10LC50: LC50: PG=−50; for Log10TGI50: TGI: PG=0; for Log10GI50: Non-Small Cell Lung Cancer, HOP-62
[5] = tested on: NCI-H226; test: NCI 60 cell line panel screen (SRB); type: cell-based, human
[6] = tested on: COLO 205; test: NCI 60 cell line panel screen (SRB); type: cell-based, human; conditions: for Log10LC50: LC50: PG=−50; for Log10GI50: Colon Cancer, COLO 205
[7] = tested on: KM12; test: NCI 60 cell line panel screen (SRB); type: cell-based, human; conditions: for Log10GI50: Colon Cancer, KM12; for Log10LC50 / Log10TGI50: KM12 (Colon Cancer); for Log10LC50: LC50: PG=−50; for Log10TGI50: TGI: PG=0
[8] = tested on: U251; test: NCI 60 cell line panel screen (SRB); type: cell-based, human; conditions: for Log10GI50: CNS Cancer, U251; for Log10LC50 / Log10TGI50: U251 (CNS Cancer); for Log10LC50: LC50: PG=−50; for Log10TGI50: TGI: PG=0
[9] = tested on: 786-0; test: NCI 60 cell line panel screen (SRB); type: cell-based, human; conditions: for Log10LC50 / Log10TGI50: 786-0 (Renal Cancer); for Log10LC50: LC50: PG=−50; for Log10TGI50: TGI: PG=0; for Log10GI50: Renal Cancer, 786-0
[10] = tested on: CAKI-1; test: NCI 60 cell line panel screen (SRB); type: cell-based, human; conditions: for Log10LC50: LC50: PG=−50
[11] = tested on: RXF 393; test: NCI 60 cell line panel screen (SRB); type: cell-based, human; conditions: for Log10LC50 / Log10TGI50: RXF 393 (Renal Cancer); for Log10LC50: LC50: PG=−50; for Log10TGI50: TGI: PG=0; for Log10GI50: Renal Cancer, RXF 393
[12] = tested on: MDA-N; test: NCI 60 cell line panel screen (SRB); type: cell-based, human; conditions: Breast Cancer, MDA-N
[13] = tested on: T-47D; test: NCI 60 cell line panel screen (SRB); type: cell-based, human; conditions: for Log10GI50: Breast Cancer, T-47D; for Log10LC50: LC50: PG=−50
[14] = tested on: SR; test: NCI 60 cell line panel screen (SRB); type: cell-based, human; conditions: SR (Leukemia)
[15] = tested on: HCC-2998; test: NCI 60 cell line panel screen (SRB); type: cell-based, human
[16] = tested on: SW-620; test: NCI 60 cell line panel screen (SRB); type: cell-based, human
[17] = tested on: LOX IMVI; test: NCI 60 cell line panel screen (SRB); type: cell-based, human
[18] = tested on: UACC-62; test: NCI 60 cell line panel screen (SRB); type: cell-based, human
[19] = tested on: OVCAR-4; test: NCI 60 cell line panel screen (SRB); type: cell-based, human
[20] = tested on: A498; test: NCI 60 cell line panel screen (SRB); type: cell-based, human
[21] = tested on: SN12C; test: NCI 60 cell line panel screen (SRB); type: cell-based, human
[22] = tested on: DU-145; test: NCI 60 cell line panel screen (SRB); type: cell-based, human

## CC1CCC2C(C)C(CC(COC(=O)CCC(=O)O)CC3OC4OC5(C)CCC6C(C)CCC(C3C)C46OO5)OC3OC4(C)CCC1C32OO4 (stereo not shown) [Compound 8a, bis-trioxane primary succinate monoester]
[1]; route IV
  ED50: 2.2 mg/kg × 4
  ED90: 6.3 mg/kg × 4
  % Parasite Supression at 10 mg/kg: 81.0%
[1]; route PO
  ED50: 9.0 mg/kg × 4
  ED90: 15.0 mg/kg × 4
  % Parasite Supression at 10 mg/kg: 79.2%
[2]
  Log10LC50: >−4.30 log10M
  Log10TGI50: −7.61 log10M
  Log10GI50: <−8.30
[3]; EKVX (Non-Small Cell Lung Cancer), LC50: PG=−50
  Log10LC50: >−4.30 log10M
[3]; EKVX (Non-Small Cell Lung Cancer), TGI: PG=0
  Log10TGI50: −5.47 log10M
[3]; Non-Small Cell Lung Cancer, EKVX
  Log10GI50: −6.90
[4]
  Log10LC50: >−4.30 log10M
  Log10TGI50: >−4.30 log10M
  Log10GI50: −6.34
[5]; NCI-H226 (Non-Small Cell Lung Cancer), LC50: PG=−50
  Log10LC50: >−4.30 log10M
[5]; NCI-H226 (Non-Small Cell Lung Cancer), TGI: PG=0
  Log10TGI50: −6.67 log10M
[5]; Non-Small Cell Lung Cancer, NCI-H226
  Log10GI50: <−8.30
[6]; COLO 205 (Colon Cancer)
  Log10LC50: 4.78 log10M
[6]; COLO 205 (Colon Cancer), TGI: PG=0
  Log10TGI50: −6.29 log10M
[6]
  Log10GI50: <−8.30
[7]
  Log10GI50: <−8.30
  Log10LC50: −4.60 log10M
  Log10TGI50: <−8.30 log10M
[8]
  Log10GI50: −8.20
  Log10LC50: >−4.30 log10M
  Log10TGI50: >−4.30 log10M
[9]
  Log10LC50: >−4.30 log10M
  Log10TGI50: >−4.30 log10M
  Log10GI50: −6.45
[10]; CAKI-1 (Renal Cancer)
  Log10LC50: >−4.30 log10M
[10]; CAKI-1 (Renal Cancer), TGI: PG=0
  Log10TGI50: >−5.99 log10M
[10]; Renal Cancer, CAKI-1
  Log10GI50: −6.84
[11]
  Log10LC50: >−4.30 log10M
  Log10TGI50: −6.77 log10M
  Log10GI50: <−8.30
[12]
  Log10GI50: −7.29
[13]
  Log10GI50: <−8.30
[13]; T-47D (Breast Cancer)
  Log10LC50: >−4.30 log10M
[13]; T-47D (Breast Cancer), TGI: PG=0
  Log10TGI50: −4.77 log10M

## CC(=O)O[C@H]1C(=O)[C@@]2(C)[C@H]([C@H](OC(=O)c3ccccc3)[C@]3(O)C[C@H](OC(=O)[C@H](O)[C@@H](NC(=O)c4ccccc4)c4ccccc4)C(C)=C1C3(C)C)[C@]1(OC(C)=O)CO[C@@H]1C[C@@H]2O [Paclitaxel, paclitaxel, reference compound]
[2]
  Log10LC50: >−4.53 log10M
  Log10TGI50: −4.53 log10M
  Log10GI50: −11.57
[14]; LC50: PG=−50
  Log10LC50: >−4.00 log10M
[14]; TGI: PG=0
  Log10TGI50: >−4.00 log10M
[4]
  Log10LC50: −4.10 log10M
  Log10TGI50: −4.80 log10M
  Log10GI50: −9.67
[6]; COLO 205 (Colon Cancer)
  Log10LC50: >−4.41 log10M
[6]
  Log10GI50: −11.07
[15]; Colon Cancer, HCC-2998
  Log10GI50: −12.34
[15]; HCC-2998 (Colon Cancer), LC50: PG=−50
  Log10LC50: −4.26 log10M
[15]; HCC-2998 (Colon Cancer), TGI: PG=0
  Log10TGI50: −4.77 log10M
[7]
  Log10GI50: −11.43
  Log10LC50: >−4.00 log10M
  Log10TGI50: −4.36 log10M
[16]; Colon Cancer, SW-620
  Log10GI50: −11.60
[16]; SW-620 (Colon Cancer), LC50: PG=−50
  Log10LC50: >−4.00 log10M
[16]; SW-620 (Colon Cancer), TGI: PG=0
  Log10TGI50: >−4.00 log10M
[8]
  Log10GI50: −11.29
  Log10LC50: −4.15 log10M
  Log10TGI50: −4.32 log10M
[17]; LOX IMVI (Melanoma), LC50: PG=−50
  Log10LC50: >−4.15 log10M
[17]; LOX IMVI (Melanoma), TGI: PG=0
  Log10TGI50: −4.65 log10M
[17]; Melanoma, LOX IMVI
  Log10GI50: −11.80
[18]; Melanoma, UACC-62
  Log10GI50: −10.46
[18]; UACC-62 (Melanoma), LC50: PG=−50
  Log10LC50: −4.19 log10M
[18]; UACC-62 (Melanoma), TGI: PG=0
  Log10TGI50: −4.71 log10M
[19]; OVCAR-4 (Ovarian Cancer), LC50: PG=−50
  Log10LC50: >−4.00 log10M
[19]; OVCAR-4 (Ovarian Cancer), TGI: PG=0
  Log10TGI50: −4.19 log10M
[19]; Ovarian Cancer, OVCAR-4
  Log10GI50: −5.00
[9]
  Log10LC50: >−4.00 log10M
  Log10TGI50: >−4.00 log10M
  Log10GI50: −8.01
[20]; A498 (Renal Cancer), LC50: PG=−50
  Log10LC50: −4.13 log10M
[20]; Renal Cancer, A498
  Log10GI50: −7.14
[10]; CAKI-1 (Renal Cancer)
  Log10LC50: >−4.00 log10M
[11]
  Log10LC50: >−4.00 log10M
  Log10TGI50: >−4.00 log10M
  Log10GI50: −8.32
[21]; Renal Cancer, SN12C
  Log10GI50: −9.53
[21]; SN12C (Renal Cancer), LC50: PG=−50
  Log10LC50: >−4.00 log10M
[22]; DU-145 (Prostate Cancer), LC50: PG=−50
  Log10LC50: >−4.00 log10M
[22]; DU-145 (Prostate Cancer), TGI: PG=0
  Log10TGI50: >−4.00 log10M
[22]; Prostate Cancer, DU-145
  Log10GI50: −9.38
[12]
  Log10GI50: <−13.00
[13]
  Log10GI50: −9.81
[13]; T-47D (Breast Cancer)
  Log10LC50: >−4.00 log10M

Reference: patent US7417156B2, “Orally active, antimalarial, anticancer, artemisinin-derived trioxane dimers” (Johns Hopkins University, priority 2002, dated 2008)
